The assay has as its target T1, KRAS G12C (GMPPNP-loaded) and cRAF (Ras-binding domain) interaction (Homo sapiens, UniProt P01116, C118S/C51S/C80L/G12C).
T1 construct: truncated version comprising amino acids 1-169
Briefly: AlphaScreen inhibition of KRAS G12C and cRAF binding. The note with it: KRAS G12C preloaded with GTP analogue GMPPNP, 2 hours preincubation. It is filed as biochemical. The protocol: The AlphaScreen technology was used to determine IC50s for compound inhibition of KRAS G12C (present as the Cys-light (C51S, C80L and C118S), truncated version comprising amino acids 1-169) and cRAF interaction. Compounds were diluted in 100% DMSO and each compound concentration was spotted at 200 nl/well onto low volume, white 384 well plates. The KRAS G12C contained a biotin-AviTag and the cRaf, as Ras-binding domain (amino acids 50-131, RBD), was GST-tagged. KRAS G12C was preloaded with the GTP analogue Guanosine 5′-[β,γ-imido]triphosphate (GMPPNP). The KRAS G12C was diluted in 25 mM Hepes, pH 7.4, 150 mM NaCl, 5 mM MgCl2, 0.01% TritonX-100 and 10 μM GMPPNP and added at 10 ul/well to compound-spotted plates resulting in a DMSO concentration of 2%. Plates were incubated for 2 hours. A mixture of RBD and the AlphaScreen streptavidin donor and glutathione acceptor beads diluted in 25 mM Hepes, pH 7.4, 150 mM NaCl, 5 mM MgCl2, 0.01% TritonX-100 and 2% DMSO was then added at 10 ul/well and incubated for 60-90 minutes before the samples were read for emission at 570 nm after excitation of the donor beads at 680 nm. All incubations were performed at room temperature. The final top compound concentration was 50 μM with 1:3 titrations for 10-point dose response curves. Final assay conditions were 0.5 nM KRAS G12C, 0.75 nM RBD and 5 ug/ml each of AlphaScreen donor and acceptor beads. IC50s were determined using nonlinear regression fit of [inhibitor] vs. response (4 parameters).
A counter assay was also set up to rule out inhibitors of the AlphaScreen technology itself. Compound plates were incubated for 2 hours as above with buffer only. The AlphaScreen beads were added as above except biotin-AviTag-GST was substituted for the RBD. Samples were read and analyzed as above.
For orientation: Bead proximity is the source of the signal in Alpha formats.

The results in this text go back to patent US20260274866A1, “PYRIDO[4,3-D]PYRIMIDINE DERIVATIVES AS MUTANT KRAS G12C INHIBITORS FOR THE TREATMENT OF CANCER” (Frontier Medicines Corporation, priority 2023, published 2026).

Where only a bound is given, the exact number is not on record here.

T1 sequence (P01116 1-169 isoform P01116-2 G12C/C51S/C80L/C118S): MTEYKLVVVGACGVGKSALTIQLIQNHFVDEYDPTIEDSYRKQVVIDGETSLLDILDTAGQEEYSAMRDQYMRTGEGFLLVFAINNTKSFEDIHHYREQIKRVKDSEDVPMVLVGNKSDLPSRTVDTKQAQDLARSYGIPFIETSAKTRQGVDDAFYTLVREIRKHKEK

For `CO[C@H]1CCN([C@H](C)/C=C/C(=O)N2CCN(c3nc(OC[C@@]45CCCN4C[C@H](F)C5)nc4c(F)c(-c5cccc6ccc(F)c(Cl)c56)ncc34)C[C@@H]2CC#N)C1` [Compound 20, 2-((S)-4-(7-(8-chloro-7-fluoronaphthalen-1-yl)-8-fluoro-2-(((2R,7aS)-2-fluorotetrahydro-1H-pyrrolizin-7a(5H)-yl)methoxy)pyrido[4,3-d]pyrimidin-4-yl)-1-((R,E)-4-((S)-3-methoxypyrrolidin-1-yl)pent-2-enoyl)piperazin-2-yl)acetonitrile], the IC50 (as a rule, the concentration that inhibits the measured activity by half) was less than 10 nM. Next, `C[C@@H](/C=C/C(=O)N1CC[C@@H](N(C)c2nc(OC[C@@]34CCCN3C[C@H](F)C4)nc3c(F)c(-c4cccc5ccc(F)c(Cl)c45)ncc23)C1)N(C)C` [Compound 18]: not below 500 nM; `CO[C@@H]1CCN([C@@H](C)/C=C/C(=O)N2CCN(c3nc(OC[C@@]45CCCN4C[C@H](F)C5)nc4c(F)c(-c5cccc6ccc(F)c(Cl)c56)ncc34)C[C@@H]2CC#N)C1` [Compound 39]: 100 to 500 nM; `CO[C@H]1CCN([C@@H](C)/C=C/C(=O)N2CCN(c3nc(OC[C@@]45CCCN4C[C@H](F)C5)nc4c(F)c(-c5cccc6ccc(F)c(Cl)c56)ncc34)C[C@@H]2CC#N)C1` [Compound 19, 2-((S)-4-(7-(8-chloro-7-fluoronaphthalen-1-yl)-8-fluoro-2-(((2R,7aS)-2-fluorotetrahydro-1H-pyrrolizin-7a(5H)-yl)methoxy)pyrido[4,3-d]pyrimidin-4-yl)-1-((S,E)-4-((S)-3-methoxypyrrolidin-1-yl)pent-2-enoyl)piperazin-2-yl)acetonitrile]: 10 to 100 nM. Consider `CC(/C=C/C(=O)N1CCN(c2nc(OCC34CCCN3CCC4)nc3c2CCN(c2cccc4cccc(Cl)c24)C3)C[C@@H]1CC#N)N1CCOCC1` (stereo partly shown) [Compound 3], for which the IC50 fell in the range of 10 to 100 nM.

The compound `CC(/C=C/C(=O)N1CCN(c2nc(OC[C@@]34CCCN3C[C@H](F)C4)nc3c(F)c(-c4cccc5cccc(Cl)c45)ncc23)C[C@@H]1CC#N)N1CCOCC1` (stereo partly shown) [Compound 11] yielded an IC50 of 10 to 100 nM.

`C[C@H](/C=C/C(=O)N1CC[C@@H](N(C)c2nc(OC[C@@]34CCCN3C[C@H](F)C4)nc3c(F)c(-c4cccc5ccc(F)c(Cl)c45)ncc23)C1)N(C)C` [Compound 6] gave a half-maximal inhibitory concentration (IC50) of 100 to 500 nM.
